Data as given in article PMC12186844 (ACS Chemical Neuroscience, 2025).
Read-outs that look alike come from different tables or passages of the source.

Columns and labels:
SNAP-D2SR F353^6.44A = SNAP-D2SR F353^6.44A (Homo sapiens, UniProt P14416, F382A); assay: functional cAMP assay, BRET biosensor; type: cell-based
Method: Flp-In-CHO cells stably coexpressing the CAMYEL biosensor and DRs were plated into white 96-well CulturPlates (Revvity) and grown overnight. The cells were equilibrated in Hank’s balanced salt solution (HBSS) at 37 °C (or 25 °C when indicated) before starting the experiment. The cells were costimulated with the agonists and 10 μM forskolin for the indicated time frames when the BRET readings were captured. Coelenterazine (Nanolight Technology, AZ) was added at a final concentration of 5 μM at least 3 min prior to measurement. […] Net BRET was determined by subtraction of the vehicle control coadded with 10 μM forskolin.
(§1) Dose–response curves were fitted using the following three-parameter equation: response=bottom+top−bottom/1+10^(logEC50−log[A]) 5 where top and bottom represent the maximal and minimal asymptote of the dose response curve, [A] is the molar concentration of the agonist, and EC50 is the molar concentration of the agonist required to give a response half-way between bottom and top.

D2LR = D2LR (Homo sapiens, UniProt P14416); assay: cell membrane [3H]raclopride binding assay; conditions: for Logα_DA / α′_DA: cooperativity with DA
SNAP-D2SR D80^2.50A = SNAP-D2SR D80^2.50A (Homo sapiens, UniProt P14416, D80A); assay: cell membrane [3H]spiperone assay
Method: (§2) Flp-In-CHO cells stably expressing the wild-type or mutant DRs were grown to 90% confluence in 175 cm^2 cell culture flasks. The cells were harvested in PBS containing 2 mM EDTA and centrifuged at 300g for 3 min. The resulting pellet was resuspended in ice-cold assay buffer (20 mM HEPES, 100 mM NaCl, 6 mM MgCl2, 1 mM EGTA, and 1 mM EDTA, pH 7.4), and the centrifugation step was repeated. The intact cell pellet was then resuspended in assay buffer and homogenized using a Polytron homogenizer. After centrifugation (1000g, 10 min), the pellet was discarded, and the supernatant was recentrifuged at 30,000g for 1 h at 4 °C using a Sorvall Evolution RC ultracentrifuge (Thermo Scientific). The resulting pellet was resuspended in assay buffer and stored in 250 μL aliquots at −80 °C. Membrane protein concentration was determined using a Pierce’s BCA protein assay kit (Thermo Fisher, Melbourne).
(§3) [^3H]­Spiperone binding experiments using cell membranes were conducted in a 200 μL reaction volume in assay buffer (20 mM HEPES, 100 mM NaCl, 6 mM MgCl2, 1 mM EGTA, and 1 mM EDTA, pH 7.4) containing 100 μM GppNHp and 0.1% ascorbic acid in 96-well plates. […] In all cases, nonspecific binding was determined in the presence of 10 μM haloperidol. […] Filter bound radioactivity was detected as a chemiluminescence after the addition of MicroScint-20 (Revvity) in a MicroBeta plate counter (Revvity). […]

SNAP-D2SR L94^2.64A = SNAP-D2SR L94^2.64A (Homo sapiens, UniProt P14416, L94A); assay: functional cAMP assay, BRET biosensor; type: cell-based
Method: Flp-In-CHO cells stably coexpressing the CAMYEL biosensor and DRs were plated into white 96-well CulturPlates (Revvity) and grown overnight. The cells were equilibrated in Hank’s balanced salt solution (HBSS) at 37 °C (or 25 °C when indicated) before starting the experiment. The cells were costimulated with the agonists and 10 μM forskolin for the indicated time frames when the BRET readings were captured. Coelenterazine (Nanolight Technology, AZ) was added at a final concentration of 5 μM at least 3 min prior to measurement. […] Net BRET was determined by subtraction of the vehicle control coadded with 10 μM forskolin. For phenoxybenzamine alkylation experiments, the cells were treated with 0.1, 0.3, or 1 μM phenoxybenzamine (Sigma-Aldrich) diluted in HBSS and equilibrated at 37 °C for 30 min prior to the commencement of the assay.
as §1

SNAP-D2SR C118^3.36A = molecular target: T1, SNAP-D2SR C118^3.36A (Homo sapiens, UniProt P14416, C118A); assay: cell membrane [3H]spiperone assay
T1 sequence (P14416 1-414 isoform P14416-2 C118A): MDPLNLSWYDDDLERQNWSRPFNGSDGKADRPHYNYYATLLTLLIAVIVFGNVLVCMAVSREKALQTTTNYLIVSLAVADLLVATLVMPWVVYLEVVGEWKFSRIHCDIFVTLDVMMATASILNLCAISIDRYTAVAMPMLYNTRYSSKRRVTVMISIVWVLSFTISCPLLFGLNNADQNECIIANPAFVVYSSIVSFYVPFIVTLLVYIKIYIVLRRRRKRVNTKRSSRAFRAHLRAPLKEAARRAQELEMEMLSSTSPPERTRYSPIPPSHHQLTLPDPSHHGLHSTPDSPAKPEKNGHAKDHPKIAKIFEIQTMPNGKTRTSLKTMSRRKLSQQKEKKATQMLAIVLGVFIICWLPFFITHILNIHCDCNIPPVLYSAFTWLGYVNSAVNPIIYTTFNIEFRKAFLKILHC
Method: as §2, §3

[1] = +0.1 mM GppNHp, cooperativity with [3H]raclopride
[2] = +PTX, cooperativity with [3H]raclopride
[3] = +urea, cooperativity with [3H]raclopride

SNAP-D2SR F353^6.44A, sequence (P14416 1-414 isoform P14416-2 F353A): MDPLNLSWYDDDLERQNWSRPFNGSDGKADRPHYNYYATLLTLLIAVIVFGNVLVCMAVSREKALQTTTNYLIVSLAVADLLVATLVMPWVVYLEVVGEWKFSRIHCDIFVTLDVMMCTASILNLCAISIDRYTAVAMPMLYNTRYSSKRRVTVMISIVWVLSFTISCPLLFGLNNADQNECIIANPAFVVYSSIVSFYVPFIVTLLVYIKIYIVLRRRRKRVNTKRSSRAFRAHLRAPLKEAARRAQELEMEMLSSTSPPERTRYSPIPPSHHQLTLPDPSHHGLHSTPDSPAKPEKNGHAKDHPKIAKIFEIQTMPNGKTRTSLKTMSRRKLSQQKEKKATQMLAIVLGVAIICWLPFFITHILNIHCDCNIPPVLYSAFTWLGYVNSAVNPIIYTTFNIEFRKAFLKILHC
D2LR, sequence (P14416 whole entry): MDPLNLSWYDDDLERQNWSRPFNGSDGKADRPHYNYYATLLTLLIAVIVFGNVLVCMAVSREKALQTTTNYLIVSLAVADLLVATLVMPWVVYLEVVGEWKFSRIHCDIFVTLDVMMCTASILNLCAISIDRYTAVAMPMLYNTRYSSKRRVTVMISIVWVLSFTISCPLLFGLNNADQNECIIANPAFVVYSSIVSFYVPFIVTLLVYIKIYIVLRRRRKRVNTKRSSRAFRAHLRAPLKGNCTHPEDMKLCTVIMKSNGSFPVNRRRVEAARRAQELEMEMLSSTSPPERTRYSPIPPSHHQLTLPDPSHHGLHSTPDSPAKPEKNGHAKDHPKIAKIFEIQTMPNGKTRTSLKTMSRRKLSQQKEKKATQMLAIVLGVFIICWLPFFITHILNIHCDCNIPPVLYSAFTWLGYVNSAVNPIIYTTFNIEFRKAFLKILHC
SNAP-D2SR L94^2.64A, sequence (P14416 1-414 isoform P14416-2 L94A): as the sequence (P14416 1-414 isoform P14416-2 F353A) above, with L94A, A353F counted along it
SNAP-D2SR D80^2.50A, sequence (P14416 1-414 isoform P14416-2 D80A): as the sequence (P14416 1-414 isoform P14416-2 F353A) above, with D80A, A353F counted along it

## COc1cc(CO)c(F)cc1C(=O)n1ccc2c(F)cccc21 [D2 PAM2, [5-fluoro-4-(hydroxymethyl)-2-methoxyphenyl]-(4-fluoro-1H-indol-1-yl)methanone]
SNAP-D2SR F353^6.44A
  D2 PAM2 log τ: –1.06 ± 0.21
  D2 PAM2 pKB: 5.13 ± 0.16
  D2 PAM2 τ: 0.09
SNAP-D2SR F353^6.44A; read-out: D2 PAM2 KB (converted)
  Kb: 7.4 µM
SNAP-D2SR F353^6.44A; with DA
  D2 PAM2 log αβ: 1.06 ± 0.21
  D2 PAM2 αβ: 11
D2LR
  fold lower affinity in cell membranes than in whole cell binding: 4 fold
D2LR; +0.1 mM GppNHp
  pKB_D2 PAM: 4.65 ± 0.05
  Logα_DA: 1.30 ± 0.02
  α′_DA: 20
D2LR; [1]
  Logα_[3H]raclo: –0.19 ± 0.05
  α_[3H]raclo: 0.65
D2LR; +0.1 mM GppNHp, read-out: KB_D2 PAM (converted)
  Kb: 22.5 µM
D2LR; +PTX
  pKB_D2 PAM: 4.54 ± 0.03
  Logα_DA: 1.22 ± 0.07
  α′_DA: 17
D2LR; [2]
  Logα_[3H]raclo: –0.37 ± 0.10
  α_[3H]raclo: 0.42
D2LR; +PTX, read-out: KB_D2 PAM (converted)
  Kb: 29 µM
D2LR; +urea
  pKB_D2 PAM: 4.53 ± 0.15
  Logα_DA: 1.35 ± 0.12
  α′_DA: 22
D2LR; [3]
  Logα_[3H]raclo: –0.06 ± 0.08
  α_[3H]raclo: 0.87
D2LR; +urea, read-out: KB_D2 PAM (converted)
  Kb: 30 µM
D2LR; D2LR
  logα_DA: 1.30 ± 0.02
  logα_[3H]raclo: -0.19 ± 0.05
  α_DA: 20
  α_[3H]raclo: 0.64
D2LR; cell membrane preparations, read-out: KB
  Kb: 22 µM
SNAP-D2SR D80^2.50A; shift of DA IC50
  fold shift + 10 μM PAM: 0.9 fold
SNAP-D2SR D80^2.50A; shift of DA pIC50
  ΔpIC50 + 10 μM PAM: –0.04 ± 0.27
SNAP-D2SR L94^2.64A
  Kb: 12.6 µM
  Logτ: -0.43 ± 0.07
  pKB: 4.90 ± 0.12
  τ: 0.37
SNAP-D2SR L94^2.64A; with DA
  Logαβ: 1.54 ± 0.10
  αβ: 34.7
SNAP-D2SR C118^3.36A; shift of DA IC50
  fold shift + 10 μM PAM: 2 fold
SNAP-D2SR C118^3.36A; shift of DA pIC50
  ΔpIC50 + 10 μM PAM: 0.31 ± 0.10
